According to US20220202912A1, “Polypeptides in Preparation of Drugs for Treatment or Prevention of Rheumatoid Arthritis” (priority 2011, published 2022):
Several values for one entry are separate records, joined by “and”; a condition that tells them apart may be missing. Identical values can stand only once. Where no end group is shown, it is not given here.

How the values were obtained:
TNF-α [1] = assay: immunohistochemistry of TNF-α in ankle joints, AIA transgenic TNF-luc mice; format: in vivo, BALB/c transgenic TNF-luc mice; conditions: Adalimumab 8 mg/kg, mPEG-SC20k-HM-3 20 mg/kg
Procedure: Changes of expression of TNF-α and IL-6 are analyzed by HE staining and immunohistochemistry in the ankle joint, spleen and thymus of the mice. Observation and photographing are performed under the FOVs of ×200 and ×400 times respectively, 5 FOVs are taken randomly for each picture, and data statistics is performed.

IL-6 = assay: immunohistochemistry of IL-6 in spleen and thymus, CIA transgenic TNF-luc mice; format: in vivo, BALB/c transgenic TNF-luc mice; conditions: Adalimumab 8 mg/kg, mPEG-SC20k-HM-3 20 mg/kg
Procedure: Determining criteria: The experimental results are determined based on the proportion of positive cells in all tissue cells and the staining intensity of positive cells: A: scoring is performed based on the number of chromogenic cells, 1 point is given when the proportion of the number of positive cells is less than ⅓, 2 points are given when the proportion of the number of positive cells is ⅓-⅔, and 3 points are given when the proportion of the number of positive cells is greater than or equal to ⅔. B: Based on the color depth of cells, 0 point is given when no cells have positive reaction, 1 point is given when cells are light yellow, 2 points are given when the cells are light brown, and 3 points are given when the cells are dark brown. Point product=A×B. The result is expressed in point product.

TNF-α [2] = assay: in vivo imaging of TNF-α expression, AIA transgenic TNF-luc mice; set-up: species or system BALB/c transgenic TNF-luc mice; conditions: Adalimumab 8 mg/kg; for Fluorescence intensity (in vivo imaging): mPEG-SC20k-HM-3 20 mg/kg sc; for in vivo fluorescence densities: mPEG-SC20k-HM-3 20 mg/kg
Procedure: […] After the mice are lightly anesthetized with ether, the mice are fixed within 5-20 min and put into an in vivo imager, the imager is covered with an instrument lid, on-fluro and om-photo names in the desktop imaging interface of the computer are clicked, and the expose button is clicked to complete the fluorescence and white light photos of mice in vivo imaging.
(§1) (1) Imaging principle: Fluorescein substrate is injected intraperitoneally, and binds to luciferase carried on TNF-α protein to catalyze luminescence. Through the Luciferase fluorescent reporter group on TNF, the change of the fluorescence area in mice is observed, and the expression of TNF-α is evaluated, so as to evaluate the impact of mPEG-SC20k-HM-3 on the expression of TNF-α.
(§2) (2) Operation steps: Start the Carestreama in vivo imager, open the MI software, click the Capture button, and set photographing conditions. In the on-flour fluorescence mode, set the parameters X Binning. 2 pixels, Y Binning. 2 pixels; Illumination Source: Multi-wavelength; f-stop: 2.50; field of view (FOV) (mm): 120; focal plane (mm): Tray. Excitation filter: 430 nm, emission filter: 535 nm; exposure time: 30s. Click the Expose button to photograph fluorescence. Under the om-photo name, set the parameters X Binning. 0 pixels, Y Binning. 0 pixels; Illumination Source: None; f-stop: 2.50; FOV (mm): 120; focal plane (mm): Tray. Excitation filter: 0 nm, emission filter: 0 nm; exposure time: 0.175 s. Click the Expose button to photograph white light.
(§3) (3) Image processing and output: Analyze and adjust photos of fluorescence function imaging and white light structure imaging to the best, and the FOV is consistent. Click Window→Tie, Display→Invert, Image Display→overlay→Transparency for image stacking. In the image output process, in a navigation panel, click Annotation→Width/Heigh→Scale Analysis Image for setting, click Add Annotation Bar for adding a title, click Add Intensity Scale for adding a ruler, and set Horizontal, Size, Style, Number of Significant Dig, and Horizontal/Vertical Length. Output a picture in Tiff format.

TNF-α [3] = assay: in vivo imaging of TNF-α expression, carrageenan-induced TNF-luc mice; set-up: species or system BALB/c transgenic TNF-luc mice; conditions: Adalimumab 8 mg/kg, mPEG-SC20k-HM-3 20 mg/kg sc
Procedure: At 8 time points, hour 0, hour 2, hour 4, hour 8, hour 12, hour 24, hour 48 and hour 72 after modeling, fluorescein is injected intraperitoneally into each group of mice. After the mice are lightly anesthetized with ether, the mice are fixed within 5-20 min and put into an in vivo imager, the imager is covered with an instrument lid, on-fluro and om-photo names in the desktop imaging interface of the computer are clicked, and the expose button is clicked to complete the fluorescence and white light photos of mice in vivo imaging. The specific imaging principle, operation steps, image processing and output are the same as those in the previous embodiment.
In vivo imaging results of mice are processed with Carestream Molecular Imaging Software 5.3, and the luminous area is used as the determination of results. The fluorescence areas of the groups after optimization are compared.
as §1, §2, §3

mPEG-SC20k-Ile-Val-Arg-Arg-Ala-Asp-Arg-Ala-Ala-Val-Pro-Gly-Gly-Gly-Gly-Arg-Gly-Asp ({mPEG‑SC 20k}-IVRRADRAAVPGGGGRGD) [polypeptide III, No. 3]
immunohistochemical score of TNF-α in ankle joint cavity (TNF-α [1]): 0.149±0.047
immunohistochemical score of IL-6 in spleen (IL-6): 0.017±0.009
immunohistochemical score of IL-6 in thymus (IL-6): 0.040±0.021
Fluorescence intensity (in vivo imaging) (TNF-α [2]; 17 d (treatment starts)): 41.604 ± 6.080 ×10^5
Fluorescence intensity (in vivo imaging) (TNF-α [2]; 32 d): 31.956 ± 1.170 ×10^5
in vivo fluorescence densities (TNF-α [2]; day 17, as printed in text): 41.6±1.68 10^6
in vivo fluorescence densities (TNF-α [2]; day 32, as printed in text): 31.96±1.17 10^6
Fluorescence intensity (in vivo imaging) (TNF-α [3]; 0 h): 10.851 ± 3.014 ×10^5
Fluorescence intensity (in vivo imaging) (TNF-α [3]; 2 h): 13.880 ± 5.266 ×10^5
Fluorescence intensity (in vivo imaging) (TNF-α [3]; 4 h): 11.926 ± 2.119 ×10^5
Fluorescence intensity (in vivo imaging) (TNF-α [3]; 8 h): 19.37±3.41 ×10^5 and 19.367 ± 3.408 ×10^5
Fluorescence intensity (in vivo imaging) (TNF-α [3]; 12 h): 18.65±9.09 ×10^5 and 18.653 ± 9.093 ×10^5
Fluorescence intensity (in vivo imaging) (TNF-α [3]; 24 h): 12.65±2.39 ×10^5 and 12.654 ± 2.390 ×10^5
Fluorescence intensity (in vivo imaging) (TNF-α [3]; 48 h): 14.37±6.24 ×10^5 and 14.037 ± 6.238 ×10^5
Fluorescence intensity (in vivo imaging) (TNF-α [3]; 72 h): 13.40±1.17 ×10^5 and 13.402 ± 1.171 ×10^5

Adalimumab [reference compound]
immunohistochemical score of TNF-α in ankle joint cavity (TNF-α [1]): 0.246±0.110
immunohistochemical score of IL-6 in spleen (IL-6): 0.008±0.003
immunohistochemical score of IL-6 in thymus (IL-6): 0.030±0.031
Fluorescence intensity (in vivo imaging) (TNF-α [2]; 17 d (treatment starts)): 46.746 ± 3.457 ×10^5
Fluorescence intensity (in vivo imaging) (TNF-α [2]; 32 d): 26.446 ± 2.659 ×10^5
in vivo fluorescence densities (TNF-α [2]; day 17, as printed in text): 46.75±3.46 10^6
in vivo fluorescence densities (TNF-α [2]; day 32, as printed in text): 26.45±2.66 10^6
Fluorescence intensity (in vivo imaging) (TNF-α [3]; 0 h): 18.048 ± 4.770 ×10^5
Fluorescence intensity (in vivo imaging) (TNF-α [3]; 2 h): 18.480 ± 4.887 ×10^5
Fluorescence intensity (in vivo imaging) (TNF-α [3]; 4 h): 20.209 ± 2.261 ×10^5
Fluorescence intensity (in vivo imaging) (TNF-α [3]; 8 h): 25.70±2.67 ×10^5 and 25.703 ± 2.668 ×10^5
Fluorescence intensity (in vivo imaging) (TNF-α [3]; 12 h): 22.40±5.06 ×10^5 and 22.396 ± 5.065 ×10^5
Fluorescence intensity (in vivo imaging) (TNF-α [3]; 24 h): 13.89±8.53 ×10^5 and 13.891 ± 0.853 ×10^5
Fluorescence intensity (in vivo imaging) (TNF-α [3]; 48 h): 14.76±3.58 ×10^5 and 14.765 ± 3.580 ×10^5
Fluorescence intensity (in vivo imaging) (TNF-α [3]; 72 h): 19.87±3.92 ×10^5 and 19.868 ± 3.924 ×10^5
